Laboratory results taken from patent publication US9663508B2, “Biaryl acyl-sulfonamide compounds as sodium channel inhibitors” (AMGEN INC., priority 2013, dated 2017).
pIC50: −log10 of the molar value.

Biological target: human Nav1.7 (Homo sapiens (Human), UniProt Q15858)
Experiment: Nav 1.7 in vitro PatchXpress (PX) assay
Type: cell-based
Conditions: not given

Sequence of human Nav1.7 (Q15858 whole entry): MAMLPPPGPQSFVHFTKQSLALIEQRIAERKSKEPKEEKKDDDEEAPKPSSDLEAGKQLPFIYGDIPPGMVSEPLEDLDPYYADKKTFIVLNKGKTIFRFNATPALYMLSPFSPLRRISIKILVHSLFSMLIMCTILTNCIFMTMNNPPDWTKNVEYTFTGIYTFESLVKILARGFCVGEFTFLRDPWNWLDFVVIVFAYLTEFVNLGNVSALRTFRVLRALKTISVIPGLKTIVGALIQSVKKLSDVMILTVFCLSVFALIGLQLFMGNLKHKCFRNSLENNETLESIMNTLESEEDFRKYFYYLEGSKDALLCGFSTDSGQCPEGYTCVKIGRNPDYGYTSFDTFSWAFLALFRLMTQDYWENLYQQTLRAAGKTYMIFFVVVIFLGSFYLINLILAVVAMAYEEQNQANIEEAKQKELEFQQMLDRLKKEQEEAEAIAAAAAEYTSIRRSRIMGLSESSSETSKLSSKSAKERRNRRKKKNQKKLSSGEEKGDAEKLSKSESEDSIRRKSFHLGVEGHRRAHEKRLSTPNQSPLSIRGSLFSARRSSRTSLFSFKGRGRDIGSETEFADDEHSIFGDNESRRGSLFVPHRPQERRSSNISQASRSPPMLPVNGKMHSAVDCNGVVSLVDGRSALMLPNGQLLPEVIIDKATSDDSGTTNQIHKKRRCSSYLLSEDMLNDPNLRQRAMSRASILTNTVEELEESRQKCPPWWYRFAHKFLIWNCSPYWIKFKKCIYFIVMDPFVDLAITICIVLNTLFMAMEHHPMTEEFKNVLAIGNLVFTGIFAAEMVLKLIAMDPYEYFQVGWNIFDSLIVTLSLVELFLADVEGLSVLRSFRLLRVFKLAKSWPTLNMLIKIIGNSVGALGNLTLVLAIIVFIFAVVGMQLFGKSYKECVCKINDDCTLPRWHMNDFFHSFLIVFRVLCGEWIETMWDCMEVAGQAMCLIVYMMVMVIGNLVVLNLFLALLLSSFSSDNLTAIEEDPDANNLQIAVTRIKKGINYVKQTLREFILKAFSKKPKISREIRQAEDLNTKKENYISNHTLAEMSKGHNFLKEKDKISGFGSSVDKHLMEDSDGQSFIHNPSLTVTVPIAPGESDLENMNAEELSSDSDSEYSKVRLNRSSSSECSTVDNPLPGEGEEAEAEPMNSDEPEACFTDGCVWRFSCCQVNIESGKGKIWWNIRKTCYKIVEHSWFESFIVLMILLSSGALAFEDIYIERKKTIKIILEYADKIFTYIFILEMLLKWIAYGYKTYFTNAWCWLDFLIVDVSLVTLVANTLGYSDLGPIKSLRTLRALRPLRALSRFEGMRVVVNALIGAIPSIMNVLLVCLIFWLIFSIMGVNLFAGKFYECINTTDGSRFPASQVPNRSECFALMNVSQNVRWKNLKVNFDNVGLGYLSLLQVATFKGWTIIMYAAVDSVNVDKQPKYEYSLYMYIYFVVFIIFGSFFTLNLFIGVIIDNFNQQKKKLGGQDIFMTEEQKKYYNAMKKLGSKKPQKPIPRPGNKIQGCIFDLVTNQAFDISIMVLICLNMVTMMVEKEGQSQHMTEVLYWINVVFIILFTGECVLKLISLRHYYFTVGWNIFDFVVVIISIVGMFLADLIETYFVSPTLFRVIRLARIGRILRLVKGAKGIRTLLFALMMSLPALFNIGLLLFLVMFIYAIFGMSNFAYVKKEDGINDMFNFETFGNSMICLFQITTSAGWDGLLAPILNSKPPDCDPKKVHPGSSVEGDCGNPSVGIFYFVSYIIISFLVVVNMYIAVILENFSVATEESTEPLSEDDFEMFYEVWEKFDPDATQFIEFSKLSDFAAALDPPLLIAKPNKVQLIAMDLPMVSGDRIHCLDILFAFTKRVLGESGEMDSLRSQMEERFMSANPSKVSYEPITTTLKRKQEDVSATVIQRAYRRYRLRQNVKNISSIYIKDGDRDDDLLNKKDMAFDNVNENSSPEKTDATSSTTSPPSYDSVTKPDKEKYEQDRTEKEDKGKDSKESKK

| SMILES | pIC50 |
| --- | --- |
| Cc1cc(C(=O)NS(C)(=O)=O)c(F)cc1-c1cnc(N2CCC[C@@H]2c2cccc(C(F)(F)F)c2)c(Cl)c1 [Example 655, 4-(5-chloro-6-((2R)-2-(3-(trifluoromethyl)phenyl)-1-pyrrolidinyl)-3-pyridinyl)-2-fluoro-5-methyl-N-(methylsulfonyl)benzamide, 4-(5-chloro-6-((2S)-2-(3-(trifluoromethyl)phenyl)-1-pyrrolidinyl)-3-pyridinyl)-2-fluoro-5-methyl-N-(methylsulfonyl)benzamide] | 6.99 |
| Cc1cc(Oc2ncc(-c3ccc(C(=O)NS(C)(=O)=O)cc3OC(F)F)cc2Cl)ccc1Cl [Example 453, 4-(5-chloro-6-(4-chloro-3-methylphenoxy)-3-pyridinyl)-3-(difluoromethoxy)-N-(methylsulfonyl)benzamide] | 7.22 |
| COc1cc(C(=O)NS(C)(=O)=O)ccc1-c1cnc(Oc2ccc(Cl)c(C(F)(F)F)c2)c(Cl)c1 [Example 370, 4-(5-chloro-6-(4-chloro-3-(trifluoromethyl)phenoxy)-3-pyridinyl)-3-methoxy-N-(methylsulfonyl)benzamide] | 7.24 |
| Cc1cc(C(=O)NS(C)(=O)=O)c(F)cc1-c1cnc(Oc2ccc(OC(C)C)cc2)c(Cl)c1 [Example 663, 4-(5-chloro-6-(4-(1-methylethoxy)phenoxy)-3-pyridinyl)-2-fluoro-5-methyl-N-(methylsulfonyl)benzamide] | 6.97 |
| COc1cc(C(=O)NS(C)(=O)=O)ccc1-c1cnc(Oc2cccc(Cl)c2C)c(C#N)c1 [Example 690, 4-(6-(3-chloro-2-methylphenoxy)-5-cyano-3-pyridinyl)-3-methoxy-N-(methylsulfonyl)benzamide] | 7.33 |
| Cc1cc(C(=O)NS(C)(=O)=O)c(F)cc1-c1cnc(Oc2c(F)ccc(Cl)c2F)c(Cl)c1 [Example 625, 4-(5-chloro-6-(3-chloro-2,6-difluorophenoxy)-3-pyridinyl)-2-fluoro-5-methyl-N-(methylsulfonyl)benzamide] | 7.08 |
| Cc1cccc(Oc2ncc(-c3cc(F)c(C(=O)NS(C)(=O)=O)cc3C)cc2Cl)c1 [Example 621, 4-(5-chloro-6-(3-methylphenoxy)-3-pyridinyl)-2-fluoro-5-methyl-N-(methylsulfonyl)benzamide] | 6.97 |
| COc1cc(C(=O)NS(C)(=O)=O)ccc1-c1cnc(Oc2ccc(Cl)c(Cl)c2)c(C#N)c1 [Example 692, 4-(5-cyano-6-(3,4-dichlorophenoxy)-3-pyridinyl)-3-methoxy-N-(methylsulfonyl)benzamide] | 7.22 |
| COc1ncc(Oc2ncc(-c3ccc(C(=O)NS(C)(=O)=O)cc3OC3COC3)cc2Cl)cc1Cl [Example 412, 4-(5-chloro-6-((5-chloro-6-methoxy-3-pyridinyl)oxy)-3-pyridinyl)-N-(methylsulfonyl)-3-(3-oxetanyloxy)benzamide] | 7.00 |
| COc1cc(C(=O)NS(C)(=O)=O)ccc1-c1cnc(Oc2ccc3c(c2)CCC3)c(Cl)c1 [Example 580, 4-(5-chloro-6-(2,3-dihydro-1H-inden-5-yloxy)-3-pyridinyl)-3-methoxy-N-(methylsulfonyl)benzamide] | 7.18 |
| COc1cc(C(=O)NS(C)(=O)=O)ccc1-c1cnc(Oc2ccc(F)c(F)c2F)c(Cl)c1 [Example 357, 4-(5-chloro-6-(2,3,4-trifluorophenoxy)-3-pyridinyl)-3-methoxy-N-(methylsulfonyl)benzamide] | 7.05 |
| COc1ccc(Oc2ncc(-c3ccc(C(=O)NS(C)(=O)=O)cc3OC)cc2Cl)c(Cl)c1 [Example 365, 4-(5-chloro-6-(2-chloro-4-methoxyphenoxy)-3-pyridinyl)-3-methoxy-N-(methylsulfonyl)benzamide] | 7.04 |
| CS(=O)(=O)NC(=O)c1ccc(-c2cnc(Oc3ccc4ccccc4c3)c(Cl)c2)c(OC2COC2)c1 [Example 424, 4-(5-chloro-6-(2-naphthalenyloxy)-3-pyridinyl)-N-(methylsulfonyl)-3-(3-oxetanyloxy)benzamide] | 7.00 |
| COc1cc(C(=O)NS(C)(=O)=O)ccc1-c1cnc(Oc2cccc(Cl)c2C)c(Cl)c1 [Example 579, 4-(5-chloro-6-(3-chloro-2-methylphenoxy)-3-pyridinyl)-3-methoxy-N-(methylsulfonyl)benzamide] | 7.31 |
| COc1cc(C(=O)NS(C)(=O)=O)ccc1-c1cnc(Oc2cc(F)ccc2F)c(Cl)c1 [Example 363, 4-(5-chloro-6-(2,5-difluorophenoxy)-3-pyridinyl)-3-methoxy-N-(methylsulfonyl)benzamide] | 7.00 |
| CC[C@H](Oc1ncc(-c2cc(F)c(C(=O)NS(C)(=O)=O)cc2C)cc1Cl)c1cccc(Cl)c1 [Example 676, 4-(5-chloro-6-(((1S)-1-(3-chlorophenyl)propyl)oxy)-3-pyridinyl)-2-fluoro-5-methyl-N-(methylsulfonyl)benzamide] | 7.23 |

Same assay, conditions: in-vitro Nav 1.7 PX data

| SMILES | pIC50 |
| --- | --- |
| COc1cc(C(=O)NS(C)(=O)=O)c(F)cc1-c1cnc(Oc2c(Cl)cc(F)cc2Cl)c(Cl)c1 [Example 737, 4-(5-chloro-6-(2,6-dichloro-4-fluorophenoxy)-3-pyridinyl)-2-fluoro-5-methoxy-N-(methylsulfonyl)benzamide] | 7.00 |
| COc1cc(C(=O)NS(C)(=O)=O)c(F)cc1-c1cnc(O[C@@H](C)Cc2ccccc2)c(Cl)c1 [Example 758, 4-(5-chloro-6-((1S)-1-methyl-2-phenylethoxy)-3-pyridinyl)-2-fluoro-5-methoxy-N-(methylsulfonyl)benzamide] | 7.08 |
| Cc1cc(C(=O)NS(C)(=O)=O)c(F)cc1-c1cnc(-c2cc(F)cc(F)c2)c(Cl)c1 [Example 834, 4-(5-Chloro-6-(3,5-Difluorophenyl)-3-Pyridinyl)-2-Fluoro-5-Methyl-N-(Methylsulfonyl)Benzamide] | 6.30 |
| COc1cc(C(=O)NS(C)(=O)=O)ccc1-c1cnc(Oc2ccnc(OC)c2Cl)c(Cl)c1 [Example 832, 4-(5-chloro-6-((3-chloro-2-methoxy-4-pyridinyl)oxy)-3-pyridinyl)-3-methoxy-N-(methylsulfonyl)benzamide] | 7.03 |
| COc1cc(C(=O)NS(C)(=O)=O)c(F)cc1-c1cnc(Oc2ccc(F)c(C)c2)c(Cl)c1 [Example 754, 4-(5-chloro-6-(4-fluoro-3-methylphenoxy)-3-pyridinyl)-2-fluoro-5-methoxy-N-(methylsulfonyl)benzamide] | 7.04 |
| COc1cc(C(=O)NS(C)(=O)=O)c(F)cc1-c1cnc(Oc2ccc(F)c3c2CCC3)c(Cl)c1 [Example 757, 4-(5-chloro-6-((7-fluoro-2,3-dihydro-1H-inden-4-yl)oxy)-3-pyridinyl)-2-fluoro-5-methoxy-N-(methylsulfonyl)benzamide] | 7.32 |
| COc1cc(C(=O)NS(C)(=O)=O)c(F)cc1-c1cnc(O[C@H](C)Cc2ccccc2)c(Cl)c1 [Example 756, 4-(5-chloro-6-((1R)-1-methyl-2-phenylethoxy)-3-pyridinyl)-2-fluoro-5-methoxy-N-(methylsulfonyl)benzamide] | 7.26 |
| Cc1cc(Cl)cc(Cl)c1Oc1ncc(-c2ccc(C(=O)NS(C)(=O)=O)cc2Br)cc1Cl [Example 794, 3-bromo-4-(5-chloro-6-(2,4-dichloro-6-methylphenoxy)-3-pyridinyl)-N-(methylsulfonyl)benzamide] | 7.56 |
| CS(=O)(=O)NC(=O)c1cc(OC(F)F)c(-c2cnc(Oc3cc(Cl)cc(Cl)c3)c(Cl)c2)cc1F [Example 784, 4-(5-chloro-6-(3,5-dichlorophenoxy)-3-pyridinyl)-5-(difluoromethoxy)-2-fluoro-N-(methylsulfonyl)benzamide] | 7.85 |
| COc1cc(C(=O)NS(C)(=O)=O)c(F)cc1-c1cnc(O[C@@H]2CCC[C@H]2C)c(Cl)c1 [Example 727, 4-(5-chloro-6-(((1R,2R)-2-methylcyclopentyl)oxy)-3-pyridinyl)-2-fluoro-5-methoxy-N-(methylsulfonyl)benzamide] | 6.99 |
| CC[C@@H](Oc1ncc(-c2cc(F)c(C(=O)NS(C)(=O)=O)cc2OC)cc1Cl)C(F)(F)F [Example 732, 4-(5-chloro-6-(((1R)-1-(trifluoromethyl)propyl)oxy)-3-pyridinyl)-2-fluoro-5-methoxy-N-(methylsulfonyl)benzamide, 4-(5-chloro-6-(((1S)-1-(trifluoromethyl)propyl)oxy)-3-pyridinyl)-2-fluoro-5-methoxy-N-(methylsulfonyl)benzamide] | 6.98 |
| COc1cc(C(=O)NS(C)(=O)=O)c(F)cc1-c1cnc(Oc2cccc(C)c2Cl)c(Cl)c1 [Example 760, 4-(5-chloro-6-(2-chloro-3-methylphenoxy)-3-pyridinyl)-2-fluoro-5-methoxy-N-(methylsulfonyl)benzamide] | 7.21 |
| Cc1cc(C(=O)NS(C)(=O)=O)c(F)cc1-c1cnc(OCC(F)F)c(Cl)c1 [Example 808, 4-(5-chloro-6-(2,2-difluoroethoxy)-3-pyridinyl)-2-fluoro-5-methyl-N-(methylsulfonyl)benzamide] | 5.61 |
| COc1cc(C(=O)NS(C)(=O)=O)c(F)cc1-c1cnc(NCC2CCC(C)(C)CC2)c(Cl)c1 [Example 721, 4-(5-chloro-6-(((4,4-dimethylcyclohexyl)methyl)amino)-3-pyridinyl)-2-fluoro-5-methoxy-N-(methylsulfonyl)benzamide] | 7.06 |
| CC[C@H](Oc1ncc(-c2cc(F)c(C(=O)NS(C)(=O)=O)cc2OC)cc1Cl)C(F)(F)F [Example 768, 4-(5-chloro-6-(((1S)-1-(trifluoromethyl)propyl)oxy)-3-pyridinyl)-2-fluoro-5-methoxy-N-(methylsulfonyl)benzamide] | 7.02 |
| COc1cc(C(=O)NS(C)(=O)=O)c(F)cc1-c1cnc(Oc2c(F)ccc(F)c2F)c(Cl)c1 [Example 766, 4-(5-chloro-6-(2,3,6-trifluorophenoxy)-3-pyridinyl)-2-fluoro-5-methoxy-N-(methylsulfonyl)benzamide] | 7.02 |
| COc1cc(C(=O)NS(C)(=O)=O)c(F)cc1-c1cnc(Oc2cc(F)ccc2F)c(Cl)c1 [Example 706, 4-(5-chloro-6-(2,5-difluorophenoxy)-3-pyridinyl)-2-fluoro-5-methoxy-N-(methylsulfonyl)benzamide] | 6.88 |
| Cc1cc(C(=O)NS(C)(=O)=O)c(F)cc1-c1ccc2c(c1)OC(F)(F)O2 [Example 809, 4-(2,2-difluoro-1,3-benzodioxol-5-yl)-2-fluoro-5-methyl-N-(methylsulfonyl)benzamide] | 6.19 |
